System: P. acnes
Experiment: Agar dilution method, growth of P. acnes and MIC, combinations with a fatty acid spike
Assay type: cell-based, Propionibacterium acnes
Design: key to Growth Index Plate 1 / Growth Index Plate 2 / Growth Index Plate 3 / Growth Index Avg: +++: confluent growth (comparable to control); ++: less confluent growth; +: marked reduction in growth to multiple tiny, single colonies; −: no growth present
Experimental: Several compounds including fatty acids such as DGLA, 15-OHEPA, and 15-HETrE were tested to determine their capacity to inhibit the growth of P. acnes. In an exemplary method, an agar dilution method was used to determine the minimum inhibitory concentration (MIC) of each tested compound. Briefly, the agar dilution method involved preparing a series of concentrations of each compound (e.g., nicotinamide, benzoyl peroxide, adapalene, metronidazole, DGLA, 15-OHEPA, and 15-HETrE) in a Reinforced Clostridial Agar (RCA) media that facilitates growth of P. acnes under anaerobic conditions. An inoculum of P. acnes was prepared by incubation of P. acnes for approximately seven days at 35-37° C. to achieve a ≧1.0 OD600 inoculum of P. acnes in RCM broth. A portion of this inoculum was then added to the surface of each plate as a 10 μL spot and incubated at 35-37° C. for 72 hours or more. Growth of P. acnes was then observed and compared to control plates in which no compound has been added, and positive inhibition plates prepared with erythromycin. […] The growth of P. acnes in the presence of nicotinamide, benzoyl peroxide, adapalene, metronidazole, DGLA, 15-OHEPA, and 15-HETrE was determined with varying concentrations of the compound (see, Table 2). Next, the MIC was determined as the concentration at which a marked reduction (+) occurs in the appearance of growth on the test plate (as per Clinical and Laboratory Standards Institute M11-A7).
The compounds tested singly in Example 1 were tested in combination with one another to determine the capacity of the combination to inhibit the growth of P. acnes. In an exemplary method, the MIC was determined for each of the combination as described in Example 1. Briefly, test combinations included DGLA with nicotinamide, benzoyl peroxide, adapalene, or metronidazole; 15-HETrE with nicotinamide, benzoyl peroxide, adapalene, or metronidazole; and 15-OHEPA with nicotinamide, benzoyl peroxide, adapalene, or metronidazole. The tables below show the growth of P. acnes in the presence of 0.4 or 1.0 mg/mL DGLA with varying concentrations of nicotinamide, benzoyl peroxide, adapalene, or metronidazole (Table 3); the growth of P. acnes in the presence of 0.01 or 0.05 mg/mL 15-HETrE with varying concentrations of nicotinamide, benzoyl peroxide, adapalene, or metronidazole (Table 5); and the growth of P. acnes in the presence of 0.5 or 0.1 mg/mL 15-OHEPA with varying concentrations of nicotinamide, benzoyl peroxide, adapalene, or metronidazole (Table 7).

[1] = compound at 0.2 mg/mL + 0.01 mg/mL 15-HETrE
[2] = compound at 0.2 mg/mL + 0.05 mg/mL 15-HETrE
[3] = compound at 0.2 mg/mL + 0.05 mg/mL 15-OHEPA
[4] = compound at 0.2 mg/mL + 0.1 mg/mL 15-OHEPA
[5] = compound at 0.2 mg/mL + 0.4 mg/mL dGLA
[6] = compound at 0.2 mg/mL + 1.0 mg/mL dGLA
[7] = compound at 0.4 mg/mL + 0.01 mg/mL 15-HETrE
[8] = compound at 0.4 mg/mL + 0.05 mg/mL 15-HETrE
[9] = compound at 0.4 mg/mL + 0.05 mg/mL 15-OHEPA
[10] = compound at 0.4 mg/mL + 0.1 mg/mL 15-OHEPA
[11] = compound at 0.4 mg/mL + 0.4 mg/mL dGLA
[12] = compound at 0.4 mg/mL + 1.0 mg/mL dGLA
[13] = compound at 0.6 mg/mL + 0.01 mg/mL 15-HETrE
[14] = compound at 0.6 mg/mL + 0.05 mg/mL 15-HETrE
[15] = compound at 0.6 mg/mL + 0.05 mg/mL 15-OHEPA
[16] = compound at 0.6 mg/mL + 0.1 mg/mL 15-OHEPA
[17] = compound at 0.6 mg/mL + 0.4 mg/mL dGLA
[18] = compound at 0.6 mg/mL + 1.0 mg/mL dGLA
[19] = compound at 0.8 mg/mL + 0.01 mg/mL 15-HETrE
[20] = compound at 0.8 mg/mL + 0.05 mg/mL 15-HETrE
[21] = compound at 0.8 mg/mL + 0.05 mg/mL 15-OHEPA
[22] = compound at 0.8 mg/mL + 0.1 mg/mL 15-OHEPA
[23] = compound at 0.8 mg/mL + 0.4 mg/mL dGLA
[24] = compound at 0.8 mg/mL + 1.0 mg/mL dGLA
[25] = compound at 1.0 mg/mL + 0.01 mg/mL 15-HETrE
[26] = compound at 1.0 mg/mL + 0.05 mg/mL 15-HETrE
[27] = compound at 1.0 mg/mL + 0.05 mg/mL 15-OHEPA
[28] = compound at 1.0 mg/mL + 0.1 mg/mL 15-OHEPA
[29] = compound at 1.0 mg/mL + 0.4 mg/mL dGLA
[30] = compound at 1.0 mg/mL + 1.0 mg/mL dGLA

Cc1ncc([N+](=O)[O-])n1CCO [Metronidazole]
Growth Index Avg [1]: +++
Growth Index Plate 1 [1]: +++
Growth Index Plate 2 [1]: +++
Growth Index Plate 3 [1]: +++
Growth Index Avg [2]: −
Growth Index Plate 1 [2]: −
Growth Index Plate 2 [2]: −
Growth Index Plate 3 [2]: −
Growth Index Avg [3]: +++
Growth Index Plate 1 [3]: +++
Growth Index Plate 2 [3]: +++
Growth Index Plate 3 [3]: +++
Growth Index Avg [4]: −
Growth Index Plate 1 [4]: −
Growth Index Plate 2 [4]: −
Growth Index Plate 3 [4]: −
Growth Index Avg [5]: +++
Growth Index Plate 1 [5]: +++
Growth Index Plate 2 [5]: +++
Growth Index Plate 3 [5]: +++
Growth Index Avg [6]: +++
Growth Index Plate 1 [6]: +++
Growth Index Plate 2 [6]: +++
Growth Index Plate 3 [6]: +++
Growth Index Avg [7]: +++
Growth Index Plate 1 [7]: +++
Growth Index Plate 2 [7]: +++
Growth Index Plate 3 [7]: +++
Growth Index Avg [8]: −
Growth Index Plate 1 [8]: −
Growth Index Plate 2 [8]: −
Growth Index Plate 3 [8]: −
Growth Index Avg [9]: +++
Growth Index Plate 1 [9]: +++
Growth Index Plate 2 [9]: +++
Growth Index Plate 3 [9]: +++
Growth Index Avg [10]: −
Growth Index Plate 1 [10]: −
Growth Index Plate 2 [10]: −
Growth Index Plate 3 [10]: −
Growth Index Avg [11]: +++
Growth Index Plate 1 [11]: +++
Growth Index Plate 2 [11]: +++
Growth Index Plate 3 [11]: +++
Growth Index Avg [12]: +++
Growth Index Plate 1 [12]: +++
Growth Index Plate 2 [12]: +++
Growth Index Plate 3 [12]: +++
Growth Index Avg [13]: +++
Growth Index Plate 1 [13]: +++
Growth Index Plate 2 [13]: +++
Growth Index Plate 3 [13]: +++
Growth Index Avg [14]: −
Growth Index Plate 1 [14]: −
Growth Index Plate 2 [14]: −
Growth Index Plate 3 [14]: −
Growth Index Avg [15]: +++
Growth Index Plate 1 [15]: +++
Growth Index Plate 2 [15]: +++
Growth Index Plate 3 [15]: +++
Growth Index Avg [16]: −
Growth Index Plate 1 [16]: −
Growth Index Plate 2 [16]: −
Growth Index Plate 3 [16]: −
Growth Index Avg [17]: +++
Growth Index Plate 1 [17]: +++
Growth Index Plate 2 [17]: +++
Growth Index Plate 3 [17]: +++
Growth Index Avg [18]: +++
Growth Index Plate 1 [18]: +++
Growth Index Plate 2 [18]: +++
Growth Index Plate 3 [18]: +++
Growth Index Avg [19]: +++
Growth Index Plate 1 [19]: +++
Growth Index Plate 2 [19]: +++
Growth Index Plate 3 [19]: +++
Growth Index Avg [20]: −
Growth Index Plate 1 [20]: −
Growth Index Plate 2 [20]: −
Growth Index Plate 3 [20]: −
Growth Index Avg [21]: +++
Growth Index Plate 1 [21]: +++
Growth Index Plate 2 [21]: +++
Growth Index Plate 3 [21]: ++
Growth Index Avg [22]: −
Growth Index Plate 1 [22]: −
Growth Index Plate 2 [22]: −
Growth Index Plate 3 [22]: −
Growth Index Avg [23]: ++
Growth Index Plate 1 [23]: +++
Growth Index Plate 2 [23]: ++
Growth Index Plate 3 [23]: ++
Growth Index Avg [24]: +++
Growth Index Plate 1 [24]: +++
Growth Index Plate 2 [24]: +++
Growth Index Plate 3 [24]: ++
Growth Index Avg [25]: +++
Growth Index Plate 1 [25]: +++
Growth Index Plate 2 [25]: +++
Growth Index Plate 3 [25]: +++
Growth Index Avg [26]: −
Growth Index Plate 1 [26]: −
Growth Index Plate 2 [26]: −
Growth Index Plate 3 [26]: −
Growth Index Avg [27]: +++
Growth Index Plate 1 [27]: +++
Growth Index Plate 2 [27]: ++
Growth Index Plate 3 [27]: +++
Growth Index Avg [28]: −
Growth Index Plate 1 [28]: −
Growth Index Plate 2 [28]: −
Growth Index Plate 3 [28]: −
Growth Index Avg [29]: ++
Growth Index Plate 1 [29]: ++
Growth Index Plate 2 [29]: ++
Growth Index Plate 3 [29]: ++
Growth Index Avg [30]: ++
Growth Index Plate 1 [30]: ++
Growth Index Plate 2 [30]: ++
Growth Index Plate 3 [30]: ++
growth of P. Acnes in combination with 15-HETrE, compared with 15-HETrE used alone (in combination with 15-HETrE): did not reduce the growth
growth of P. Acnes in combination with 15-OHEPA, compared with 15 OHEPA used alone (in combination with 15-OHEPA): did not reduce the growth
growth of P. Acnes in combination with DGLA, compared with DGLA used alone (in combination with DGLA): did not reduce the growth
